In US20250353891A1 (MEDIMMUNE LIMITED, priority 2022, published 2025):
pEC50: −log10 of the molar value. Like-named read-outs stand apart in the source and are kept apart here. Starred links: 1 amine or outer side, 2 acyl side, 3 side chain; linkers in the order of their positions; H or OH if unused. Non-standard residues stand in square brackets, D forms with d. Residues, ends and D or L forms follow the SMILES beside them. Groups on a side chain read outwards from the residue. *: point of attachment. C18 diacid = O=C(O)CCCCCCCCCCCCCCCCC(=O)*; γGlu = O=C(O)[C@H](CCC(=O)[*:2])N[*:1]; αMeF = C[C@](N)(Cc1ccccc1)C(=O)O; AEEA = NCCOCCOCC(=O)O; Aib = CC(C)(N)C(=O)O

Tests used:
[1] = target: human GLP-1 receptor (hGLP-1R) (Homo sapiens, UniProt P43220); assay: cAMP production (HTRF) in CHO cells expressing hGLP-1R; format: cell-based; design: expressed in transfected cells; conditions: for pEC50: read-out: hGLP-1R EC50; for % Relative Potency Ratio: Table 6, % GLP-1R activity relative to GLP-1 / % GlucR activity relative to glucagon
Sequence of human GLP-1 receptor (hGLP-1R) (P43220 24-463): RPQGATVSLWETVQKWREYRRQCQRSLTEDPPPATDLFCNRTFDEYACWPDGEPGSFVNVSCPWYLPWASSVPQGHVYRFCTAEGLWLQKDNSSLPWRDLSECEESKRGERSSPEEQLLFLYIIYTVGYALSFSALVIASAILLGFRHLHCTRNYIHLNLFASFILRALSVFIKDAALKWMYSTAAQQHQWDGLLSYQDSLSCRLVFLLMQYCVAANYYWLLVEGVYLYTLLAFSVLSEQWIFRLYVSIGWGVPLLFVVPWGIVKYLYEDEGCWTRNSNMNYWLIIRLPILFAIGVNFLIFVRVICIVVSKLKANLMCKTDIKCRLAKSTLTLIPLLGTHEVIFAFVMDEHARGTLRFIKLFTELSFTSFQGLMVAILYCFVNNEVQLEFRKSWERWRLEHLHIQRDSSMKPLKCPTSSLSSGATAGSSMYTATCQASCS
Outline: (§1)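 Potency values represent EC50 from 4-parameter logistic curves of HTRF % Delta F signal. Receptor-expressing CHO cells (hGCGR 2×10^5 cells/mL, hGLP-1R 1×10^5 cells/mL) were exposed for 30 min at room temperature before two-step cAMP detection.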

[2] = target: human glucagon receptor (hGCGR) (Homo sapiens, UniProt P47871); assay: cAMP production (HTRF) in CHO cells expressing hGCGR; format: cell-based; design: expressed in transfected cells; conditions: Table 6, peptides modified at position 17, cAMP in CHO hGCGR cells, geometric mean; for pEC50: read-out: hGluc-R EC50
Sequence of human glucagon receptor (hGCGR) (P47871 26-477): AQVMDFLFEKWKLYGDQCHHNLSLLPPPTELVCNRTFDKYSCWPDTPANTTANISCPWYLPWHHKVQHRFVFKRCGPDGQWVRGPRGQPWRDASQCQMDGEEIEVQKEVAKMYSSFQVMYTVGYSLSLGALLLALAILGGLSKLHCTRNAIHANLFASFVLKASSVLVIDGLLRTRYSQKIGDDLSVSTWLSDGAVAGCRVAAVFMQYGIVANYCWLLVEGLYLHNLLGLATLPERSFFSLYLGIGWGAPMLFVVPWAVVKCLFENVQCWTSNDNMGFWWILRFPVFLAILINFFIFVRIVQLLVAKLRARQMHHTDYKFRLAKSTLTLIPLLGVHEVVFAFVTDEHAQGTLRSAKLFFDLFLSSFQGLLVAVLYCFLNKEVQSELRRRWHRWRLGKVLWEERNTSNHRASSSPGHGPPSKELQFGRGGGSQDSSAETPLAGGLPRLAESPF
Outline: as §1

[3] = Table 6, peptides modified at position 17, cAMP in CHO hGLP-1R cells, geometric mean

Row | SMILES | pEC50 [1, 3] | % Relative Potency Ratio [1] | pEC50 [2] | EC50 ([1]; hGLP-1R EC50 (pM), Table 6, peptides modified at position 17, cAMP in CHO hGLP-1R cells, geometric mean) [pM] | EC50 ([2]; hGluc-R EC50 (pM)) [pM]
1 | CC(C)C[C@H](NC(=O)[C@H](Cc1c[nH]c2ccccc12)NC(=O)[C@H](CCCNC(=N)N)NC(=O)[C@@H](NC(=O)[C@H](Cc1ccccc1)NC(=O)[C@H](CC(=O)O)NC(=O)[C@H](CCC(N)=O)NC(=O)[C@H](C)NC(=O)[C@H](CCCNC(=N)N)NC(=O)[C@H](CCCCNC(=O)COCCOCCNC(=O)COCCOCCNC(=O)CC[C@H](NC(=O)CCCCCCCCCCCCCCCCC(=O)O)C(=O)O)NC(=O)[C@H](CO)NC(=O)[C@H](CC(=O)O)NC(=O)[C@H](CC(C)C)NC(=O)[C@](C)(Cc1ccccc1)NC(=O)[C@H](CCCCN)NC(=O)[C@H](CO)NC(=O)[C@@H](NC(=O)[C@H](CC(=O)O)NC(=O)[C@H](CO)NC(=O)[C@@H](NC(=O)[C@H](Cc1ccccc1)NC(=O)[C@@H](NC(=O)CNC(=O)[C@H](CCC(N)=O)NC(=O)C(C)(C)NC(=O)[C@@H](N)Cc1c[nH]cn1)[C@@H](C)O)[C@@H](C)O)C(C)C)C(C)C)C(=O)N[C@@H](CC(C)C)C(=O)N[C@@H](CCC(=O)O)C(=O)NC(C)(C)C(=O)N[C@@H](C)C(=O)O [Peptide 163] (H-H[Aib]QGTFTSDVSK[αMeF]LDSK([AEEA-AEEA-γGlu-C18 diacid])RAQDFVRWLLE[Aib]A-OH; N-terminus assumed) | 10.05 | 3.2 | 9.84 |  | 
2 | CC(C)C[C@H](NC(=O)[C@H](Cc1c[nH]c2ccccc12)NC(=O)[C@H](CCCNC(=N)N)NC(=O)[C@@H](NC(=O)[C@H](Cc1ccccc1)NC(=O)[C@H](CC(=O)O)NC(=O)[C@H](CCC(N)=O)NC(=O)[C@H](C)NC(=O)[C@H](CCCNC(=N)N)NC(=O)[C@H](CCCCNC(=O)COCCOCCNC(=O)COCCOCCNC(=O)CC[C@H](NC(=O)CCCCCCCCCCCCCCCCC(=O)O)C(=O)O)NC(=O)[C@H](CO)NC(=O)[C@H](CC(=O)O)NC(=O)[C@H](CC(C)C)NC(=O)[C@](C)(Cc1ccccc1)NC(=O)[C@H](CCCCN)NC(=O)[C@H](CO)NC(=O)[C@@H](NC(=O)[C@H](CC(=O)O)NC(=O)[C@H](CO)NC(=O)[C@@H](NC(=O)[C@H](Cc1ccccc1)NC(=O)[C@@H](NC(=O)CNC(=O)[C@H](CCC(N)=O)NC(=O)C(C)(C)NC(=O)[C@@H](N)Cc1c[nH]cn1)[C@@H](C)O)[C@@H](C)O)C(C)C)C(C)C)C(=O)N[C@H](C(=O)NC(C)(C)C(=O)N[C@H](C(=O)N[C@@H](CCC(=O)O)C(=O)O)[C@@H](C)O)C(C)C [Peptide 165] (H-H[Aib]QGTFTSDVSK[αMeF]LDSK([AEEA-AEEA-γGlu-C18 diacid])RAQDFVRWLV[Aib]TE-OH; N-terminus assumed) | 10.29 | 40.0 | 8.99 |  | 
3 | CC(C)C[C@H](NC(=O)[C@H](Cc1c[nH]c2ccccc12)NC(=O)[C@H](CCCNC(=N)N)NC(=O)[C@@H](NC(=O)[C@H](Cc1ccccc1)NC(=O)[C@H](CC(=O)O)NC(=O)[C@H](CCCNC(=N)N)NC(=O)[C@H](C)NC(=O)[C@H](CCCNC(=N)N)NC(=O)[C@H](CCCCNC(=O)COCCOCCNC(=O)COCCOCCNC(=O)CC[C@H](NC(=O)CCCCCCCCCCCCCCCCC(=O)O)C(=O)O)NC(=O)[C@H](CO)NC(=O)[C@H](CC(=O)O)NC(=O)[C@H](CC(C)C)NC(=O)[C@](C)(Cc1ccccc1)NC(=O)[C@H](CCCCN)NC(=O)[C@H](CO)NC(=O)[C@@H](NC(=O)[C@H](CC(=O)O)NC(=O)[C@H](CO)NC(=O)[C@@H](NC(=O)[C@H](Cc1ccccc1)NC(=O)[C@@H](NC(=O)CNC(=O)[C@H](CCC(N)=O)NC(=O)C(C)(C)NC(=O)[C@@H](N)Cc1c[nH]cn1)[C@@H](C)O)[C@@H](C)O)C(C)C)C(C)C)C(=O)N[C@@H](CC(C)C)C(=O)NC(C)(C)C(=O)N[C@H](C(=O)N[C@@H](CCC(=O)O)C(=O)O)[C@@H](C)O [Peptide 166] (H-H[Aib]QGTFTSDVSK[αMeF]LDSK([AEEA-AEEA-γGlu-C18 diacid])RARDFVRWLL[Aib]TE-OH; N-terminus assumed) | 10.32 | 11.1 | 9.57 |  | 
4 | CC(C)C[C@H](NC(=O)[C@H](Cc1c[nH]c2ccccc12)NC(=O)[C@H](C)NC(=O)[C@@H](NC(=O)[C@H](Cc1ccccc1)NC(=O)[C@H](CC(=O)O)NC(=O)[C@H](CCCNC(=N)N)NC(=O)[C@H](C)NC(=O)[C@H](CCCNC(=N)N)NC(=O)[C@H](CCCCNC(=O)COCCOCCNC(=O)COCCOCCNC(=O)CC[C@H](NC(=O)CCCCCCCCCCCCCCCCC(=O)O)C(=O)O)NC(=O)[C@H](CO)NC(=O)[C@H](CC(=O)O)NC(=O)[C@H](CC(C)C)NC(=O)[C@](C)(Cc1ccccc1)NC(=O)[C@H](CCCCN)NC(=O)[C@H](CO)NC(=O)[C@@H](NC(=O)[C@H](CC(=O)O)NC(=O)[C@H](CO)NC(=O)[C@@H](NC(=O)[C@H](Cc1ccccc1)NC(=O)[C@@H](NC(=O)CNC(=O)[C@H](CCC(N)=O)NC(=O)C(C)(C)NC(=O)[C@@H](N)Cc1c[nH]cn1)[C@@H](C)O)[C@@H](C)O)C(C)C)C(C)C)C(=O)N[C@@H](CC(C)C)C(=O)NC(C)(C)C(=O)N[C@H](C(=O)N[C@@H](CCC(=O)O)C(=O)O)[C@@H](C)O [Peptide 167] (H-H[Aib]QGTFTSDVSK[αMeF]LDSK([AEEA-AEEA-γGlu-C18 diacid])RARDFVAWLL[Aib]TE-OH; N-terminus assumed) | 10.11 | 8.0 | 9.51 |  | 
5 | CC(C)C[C@H](NC(=O)[C@H](C)NC(=O)[C@H](CCCNC(=N)N)NC(=O)[C@H](CCCCNC(=O)COCCOCCNC(=O)COCCOCCNC(=O)CC[C@H](NC(=O)CCCCCCCCCCCCCCCCC(=O)O)C(=O)O)NC(=O)[C@H](CO)NC(=O)[C@H](CC(=O)O)NC(=O)[C@H](CC(C)C)NC(=O)[C@](C)(Cc1ccccc1)NC(=O)[C@H](CCCCN)NC(=O)[C@H](CO)NC(=O)[C@@H](NC(=O)[C@H](CC(=O)O)NC(=O)[C@H](CO)NC(=O)[C@@H](NC(=O)[C@H](Cc1ccccc1)NC(=O)[C@@H](NC(=O)CNC(=O)[C@H](CCC(N)=O)NC(=O)C(C)(C)NC(=O)[C@@H](N)Cc1c[nH]cn1)[C@@H](C)O)[C@@H](C)O)C(C)C)C(=O)N[C@@H](CC(=O)O)C(=O)N[C@@H](Cc1ccccc1)C(=O)N[C@H](C(=O)N[C@@H](CCCNC(=N)N)C(=O)N[C@@H](Cc1c[nH]c2ccccc12)C(=O)N[C@@H](CC(C)C)C(=O)N[C@@H](CC(C)C)C(=O)NC(C)(C)C(=O)N[C@H](C(=O)N[C@@H](CCC(=O)O)C(=O)O)[C@@H](C)O)C(C)C [Peptide 168] (H-H[Aib]QGTFTSDVSK[αMeF]LDSK([AEEA-AEEA-γGlu-C18 diacid])RALDFVRWLL[Aib]TE-OH; N-terminus assumed) | 9.35 | 3.9 | 9.05 |  | 
6 | CC(C)C[C@H](NC(=O)[C@H](CCC(=O)O)NC(=O)[C@H](CC(C)C)NC(=O)[C@](C)(Cc1ccccc1)NC(=O)[C@H](CCCCN)NC(=O)[C@H](CO)NC(=O)[C@@H](NC(=O)[C@H](CC(=O)O)NC(=O)[C@H](CO)NC(=O)[C@@H](NC(=O)[C@H](Cc1ccccc1)NC(=O)[C@@H](NC(=O)CNC(=O)[C@H](CCC(N)=O)NC(=O)C(C)(C)NC(=O)[C@@H](N)Cc1c[nH]cn1)[C@@H](C)O)[C@@H](C)O)C(C)C)C(=O)N[C@@H](CCCCNC(=O)COCCOCCNC(=O)COCCOCCNC(=O)CC[C@H](NC(=O)CCCCCCCCCCCCCCCCC(=O)O)C(=O)O)C(=O)N[C@@H](CCCNC(=N)N)C(=O)N[C@@H](C)C(=O)N[C@@H](CCC(N)=O)C(=O)N[C@@H](CC(=O)O)C(=O)N[C@@H](Cc1ccccc1)C(=O)N[C@H](C(=O)N[C@@H](CCCNC(=N)N)C(=O)N[C@@H](Cc1c[nH]c2ccccc12)C(=O)N[C@@H](CC(C)C)C(=O)N[C@@H](CC(C)C)C(=O)NC(C)(C)C(=O)N[C@H](C(=O)N[C@@H](CCC(=O)O)C(=O)O)[C@@H](C)O)C(C)C [Peptide 169] (H-H[Aib]QGTFTSDVSK[αMeF]LELK([AEEA-AEEA-γGlu-C18 diacid])RAQDFVRWLL[Aib]TE-OH; N-terminus assumed) |  |  |  | 210 | 1400
7 | CC(C)C[C@H](NC(=O)[C@H](Cc1c[nH]c2ccccc12)NC(=O)[C@H](CCCNC(=N)N)NC(=O)[C@@H](NC(=O)[C@H](Cc1ccccc1)NC(=O)[C@H](CC(=O)O)NC(=O)[C@H](CCC(N)=O)NC(=O)[C@H](C)NC(=O)[C@H](CCCNC(=N)N)NC(=O)[C@H](CCCCNC(=O)COCCOCCNC(=O)COCCOCCNC(=O)CC[C@H](NC(=O)CCCCCCCCCCCCCCCCC(=O)O)C(=O)O)NC(=O)[C@H](CCC(=O)O)NC(=O)[C@H](CC(=O)O)NC(=O)[C@H](CC(C)C)NC(=O)[C@](C)(Cc1ccccc1)NC(=O)[C@H](CCCCN)NC(=O)[C@H](CO)NC(=O)[C@@H](NC(=O)[C@H](CC(=O)O)NC(=O)[C@H](CO)NC(=O)[C@@H](NC(=O)[C@H](Cc1ccccc1)NC(=O)[C@@H](NC(=O)CNC(=O)[C@H](CCC(N)=O)NC(=O)C(C)(C)NC(=O)[C@@H](N)Cc1c[nH]cn1)[C@@H](C)O)[C@@H](C)O)C(C)C)C(C)C)C(=O)N[C@@H](CC(C)C)C(=O)NC(C)(C)C(=O)N[C@H](C(=O)N[C@@H](CCC(=O)O)C(=O)O)[C@@H](C)O [Peptide 170] (H-H[Aib]QGTFTSDVSK[αMeF]LDEK([AEEA-AEEA-γGlu-C18 diacid])RAQDFVRWLL[Aib]TE-OH; N-terminus assumed) | 9.83 | 11.2 | 9.08 |  | 
